The target of assay [1] is T1, Recombinant ROCK1 (amino acids 1-477) (Homo sapiens, UniProt Q13464).
T1 construct: Recombinant ROCK1 (amino acids 1-477); by word order, ROCK1 from Carna Biosciences
Briefly: ROCK inhibition assay, LANCE Ultra TR-FRET kinase assay (ROCK1). The assay is classed as biochemical. Conditions: 1 μM ATP, 50 nM ULight-CREBtide substrate. A digest of the protocol: (§1)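 LANCE Ultra TR-FRET kinase assay with recombinant ROCK1 (aa 1-477) or ROCK2 (aa 5-554), 50 nM ULight-CREBtide and ATP at 1 μM (ROCK1) or 4 μM (ROCK2) in HEPES pH 7.5 with MgCl2, 1 h at room temperature. EDTA stop with Eu anti-phospho-CREB Ser133 antibody; 665/615 nm read gives IC50.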

The target in assay [2] is T2, Recombinant ROCK2 (amino acids 5-554) (Homo sapiens, UniProt O75116).
T2 construct: ROCK2 (amino acids 5-554); by word order, ROCK2 from SignalChem
Briefly: ROCK inhibition assay, LANCE Ultra TR-FRET kinase assay (ROCK2). To be noted: 4 μM ATP, 50 nM ULight-CREBtide substrate. Format: biochemical. In outline:
as §1

Assay [3] deals with ROCK1/2 in A7r5 cells (pMLC2 levels). Briefly: Inhibition of ROCK1/2 in A7r5 cells, cell-based ELISA of phospho-myosin light chain (pMLC2, Thr18/Ser19). To be noted: Rattus norvegicus, 1.5 h, treated with test compounds for 90 minutes, read-out: pMLC2 (cellular EC50). As for the experimental part: Inhibition of ROCK1/2 in A7r5 cells was measured through cell-based ELISA assay. Rat aortic smooth muscle cell line A7r5 cells were maintained and treated in DMEM medium with 10% fetal bovine serum. Cells were seeded with 5,000 cells/well in 96 well plates for 24 hours and subsequently treated with test compounds for 90 minutes. Cells were then fixed and processed according to the In-Cell ELISA Colrimetric Detection Kit manual (Thermo Scientific). Cellular phospho-myosin light chain (pMLC2, Thr18/Ser19) levels were determined after treatment with DMSO control or a test compound using the In-Cell ELISA kit.
The resulting data was applied to the following formula ‘[1-(compound/DMSO)]×100%’ to calculate the percent inhibition rate. pMLC2 data obtained from 9 points 3-fold serial dilution of compounds were applied to the nonlinear regression curve fit function of the GraphPad Prism software to calculate the cellular EC50 values.

IC50 and EC50 data for 35 compounds are collected here from patent US12064426B2, “Selective inhibitors of ROCK1 and ROCK2 protein kinases and uses thereof” (GENOSCO Inc., priority 2021, dated 2024).

Each structure is given as a SMILES string.

T1 sequence (Q13464 1-477): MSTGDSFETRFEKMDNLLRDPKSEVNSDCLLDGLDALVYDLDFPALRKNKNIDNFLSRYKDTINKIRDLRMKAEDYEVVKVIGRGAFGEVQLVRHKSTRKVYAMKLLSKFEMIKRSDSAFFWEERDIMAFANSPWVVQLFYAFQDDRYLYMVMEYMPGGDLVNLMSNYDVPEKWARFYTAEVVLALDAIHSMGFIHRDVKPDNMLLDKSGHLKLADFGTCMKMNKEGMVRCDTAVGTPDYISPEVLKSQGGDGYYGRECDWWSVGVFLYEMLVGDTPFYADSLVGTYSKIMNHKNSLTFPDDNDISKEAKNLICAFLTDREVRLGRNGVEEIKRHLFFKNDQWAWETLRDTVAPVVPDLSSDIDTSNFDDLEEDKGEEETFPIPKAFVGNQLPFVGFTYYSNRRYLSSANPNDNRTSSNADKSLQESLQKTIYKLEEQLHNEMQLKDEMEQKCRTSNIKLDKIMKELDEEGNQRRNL
T2 sequence (O75116 5-554): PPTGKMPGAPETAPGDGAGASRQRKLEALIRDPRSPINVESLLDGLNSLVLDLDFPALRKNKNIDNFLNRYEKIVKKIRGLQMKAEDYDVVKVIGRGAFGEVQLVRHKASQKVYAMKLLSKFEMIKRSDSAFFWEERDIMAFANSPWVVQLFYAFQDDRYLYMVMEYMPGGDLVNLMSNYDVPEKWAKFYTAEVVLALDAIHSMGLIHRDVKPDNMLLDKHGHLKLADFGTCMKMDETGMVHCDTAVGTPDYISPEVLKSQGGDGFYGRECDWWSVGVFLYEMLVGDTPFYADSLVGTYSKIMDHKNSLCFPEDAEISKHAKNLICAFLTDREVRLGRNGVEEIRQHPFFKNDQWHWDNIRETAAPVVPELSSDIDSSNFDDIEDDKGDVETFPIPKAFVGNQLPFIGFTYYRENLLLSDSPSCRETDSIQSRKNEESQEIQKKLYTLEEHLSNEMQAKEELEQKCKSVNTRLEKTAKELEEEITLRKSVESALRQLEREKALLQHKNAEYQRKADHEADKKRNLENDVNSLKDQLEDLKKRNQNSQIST

For the compound `Cc1nocc1-c1ccc2c(=O)n(Cc3cccc(O)c3)ccc2c1` [Compound 10], the IC50 in assay [1] is 11 to 100 nM; in assay [2], below 10 nM. Besides, the EC50 in assay [3] was below 100 nM.

For `Cn1nccc1-c1ccc2c(=O)n(Cc3cccc(O)c3)ccc2c1` [Compound 12], the 50% inhibitory concentration (IC50) in assay [1] was 11 to 100 nM; in assay [2], below 10 nM. For the same compound, in assay [3], the EC50 lay within 101 to 500 nM.

With `COc1cccc(Cn2ccc3cc(-c4ccncc4)ccc3c2=O)c1` [Compound 22], the IC50 in assay [1] and in assay [2] was below 10 nM throughout. In assay [3], the EC50 was below 100 nM.

Regarding `COc1cccc(Cn2ccc3cc(-c4ccnc(N)c4)ccc3c2=O)c1` [Compound 24], the IC50 in assay [1] is above 501 nM; in assay [2], 10 to 100 nM. The EC50 in assay [3] lay within 101 to 500 nM.

Regarding `CN(C)Cc1ccccc1Cn1ccc2cc(-c3ccnc(N)c3)ccc2c1=O` [Compound 25], the IC50 in assay [1] was 11 to 100 nM; in assay [2] it was below 10 nM. For the same compound, the EC50 in assay [3] fell in the range of 101 to 500 nM.

On to `Cc1n[nH]cc1-c1ccc2c(=O)n(Cc3cccc(C(=O)NCCc4ccccn4)c3)ccc2c1` [Compound 31], for which the IC50 in assay [1] and in assay [2] was below 10 nM each time. Further, the EC50 in assay [3] was below 100 nM.

Take `Cc1nocc1-c1ccc2c(=O)n(Cc3cccc(C(=O)N[C@H]4CC[C@H](O)CC4)c3)ccc2c1` [Compound 75]: the IC50 lay within 101 to 500 nM in assay [1] and 10 to 100 nM in assay [2]. Further, the 50% effective concentration (EC50) in assay [3] was 101 to 500 nM.

As for `Cc1nocc1-c1ccc2c(=O)n(Cc3cccc(C(=O)NC4CCOCC4)c3)ccc2c1` [Compound 77], the IC50 in assay [1] is 11 to 100 nM; in assay [2] it was below 10 nM. Besides, the EC50 in assay [3] lay within 101 to 500 nM.

For `Cc1nocc1-c1ccc2c(=O)n(Cc3cccc(C(=O)NCC4CCN(CC(F)F)CC4)c3)ccc2c1` [Compound 82], the concentration for half-maximal inhibition (IC50) in assay [1] fell in the range of 101 to 500 nM; in assay [2], 10 to 100 nM. Further, in assay [3], the EC50 was below 100 nM.

For the compound `Cc1nocc1-c1ccc2c(=O)n(Cc3cccc(C(=O)NC4CCN(CC(F)F)CC4)c3)ccc2c1` [Compound 86], the IC50 in assay [1] was 11 to 100 nM; in assay [2], below 10 nM. Also, the EC50 in assay [3] is below 100 nM.

With `Cn1nccc1-c1ccc2c(=O)n(Cc3cccc(C(=O)NC4CCN(CC(F)F)CC4)c3)ccc2c1` [Compound 107], the results for the IC50 in assay [1] and in assay [2] were 11 to 100 nM and below 10 nM, respectively. The EC50 in assay [3] lay within 101 to 500 nM.

Take `Cn1nccc1-c1ccc2c(=O)n(Cc3cccc(C(=O)NC4CCN(CC(F)(F)F)CC4)c3)ccc2c1` [Compound 108]: the IC50 in assay [1] was 11 to 100 nM; in assay [2] it was below 10 nM. For the same compound, the EC50 in assay [3] lay in the range of 101 to 500 nM.

On to `Cc1nocc1-c1ccc2c(=O)n(Cc3cccc(C(=O)NC4COC4)c3)ccc2c1` [Compound 146], for which the values for the IC50 in assay [1] and in assay [2] were 101 to 500 nM and 10 to 100 nM, respectively. In addition, the EC50 in assay [3] lay within 501 to 1000 nM.

`Cn1nccc1-c1ccc2c(=O)n(Cc3cc(F)cc(C(=O)N[C@H]4CC[C@@H](O)CC4)c3)ccc2c1` [Compound 165]: the figures for the IC50 in assay [1] and in assay [2] were 101 to 500 nM and 10 to 100 nM, respectively. Besides, the EC50 in assay [3] fell in the range of 501 to 1000 nM.

Consider `Nc1cc(-c2ccc3c(=O)n(Cc4cccc(C(=O)NCc5ccccc5CO)c4)ccc3c2)ccn1` [Compound 184], for which the IC50 in assay [1] was 101 to 500 nM; in assay [2], 10 to 100 nM. The EC50 in assay [3] is below 100 nM.

As for `Nc1cc(-c2ccc3c(=O)n(Cc4cccc(C(=O)NCCc5ccccn5)c4)ccc3c2)ccn1` [Compound 186], the IC50 in assay [1] was 11 to 100 nM; in assay [2] it was below 10 nM. For the same compound, the EC50 in assay [3] was below 100 nM.

Turning to `Nc1cc(-c2ccc3c(=O)n(Cc4cccc(C(=O)Nc5ccc6c(c5)CCNC6)c4)ccc3c2)ccn1` [Compound 188], the IC50 is 11 to 100 nM in assay [1] and below 10 nM in assay [2]. Further, in assay [3], the EC50 is below 100 nM.

Take `Cn1ccc(NC(=O)c2cccc(Cn3ccc4cc(-c5ccnc(N)c5)ccc4c3=O)c2)n1` [Compound 200]: the half-maximal inhibitory concentration (IC50) in assay [1] was 11 to 100 nM; in assay [2], below 10 nM. Also, the EC50 in assay [3] was below 100 nM.

`CNC(=O)c1cccc(Cn2ccc3cc(-c4cn[nH]c4C(F)(F)F)ncc3c2=O)c1` [Compound 233]: the IC50 in assay [1] was 11 to 100 nM; in assay [2], below 10 nM. For the same compound, in assay [3], the EC50 lay within 101 to 500 nM.

As for `CNC(=O)c1cccc(Cn2ccc3cc(-c4conc4C)ccc3c2=O)c1` [Compound 277], the results for the IC50 in assay [1] and in assay [2] were 101 to 500 nM and below 10 nM, respectively. Also, the EC50 in assay [3] was 501 to 1000 nM.

With `CNC(=O)c1cccc(Cn2ccc3cc(-c4cn[nH]c4C(F)(F)F)ccc3c2=O)c1` [Compound 280], the results for the IC50 in assay [1] and in assay [2] were 11 to 100 nM and below 10 nM, respectively. In assay [3], the half-maximal effective concentration (EC50) was in the range of 501 to 1000 nM.

Consider `CNC(=O)c1cc(F)cc(Cn2ccc3cc(-c4cn[nH]c4C(F)(F)F)ccc3c2=O)c1` [Compound 281], for which the figures for the IC50 in assay [1] and in assay [2] were 11 to 100 nM and below 10 nM, respectively. In addition, the EC50 in assay [3] is 101 to 500 nM.

Take `CNC(=O)c1cc(F)cc(Cn2ccc3cc(-c4conc4C)ccc3c2=O)c1` [Compound 315]: the IC50 is 11 to 100 nM in assay [1] and below 10 nM in assay [2]. Further, the EC50 in assay [3] fell in the range of 501 to 1000 nM.

For the compound `CNC(=O)c1cccc(Cn2ccc3cc(-c4ccnn4C)ccc3c2=O)c1` [Compound 320], the results for the IC50 in assay [1] and in assay [2] were 101 to 500 nM and 10 to 100 nM, respectively. Moreover, the EC50 in assay [3] is above 1000 nM.

`CNC(=O)c1cc(F)cc(Cn2ccc3cc(-c4ccnn4C)ccc3c2=O)c1` [Compound 323]: the IC50 in assay [1] is 101 to 500 nM; in assay [2] it was 10 to 100 nM. In addition, the 50% effective concentration (EC50) in assay [3] was in the range of 101 to 500 nM.

With `CNC(=O)c1cccc(Cn2ccc3cc(-c4ccnc(N)c4)ccc3c2=O)c1` [Compound 326], the IC50 was 11 to 100 nM in assay [1] and below 10 nM in assay [2]. For the same compound, the EC50 in assay [3] fell in the range of 101 to 500 nM.

Take `Nc1cc(-c2ccc3c(=O)n(Cc4cccc(C(=O)NCCc5ccccn5)c4)cnc3c2)ccn1` [Compound 437]: the IC50 was 11 to 100 nM in assay [1] and below 10 nM in assay [2]. The EC50 in assay [3] fell in the range of 101 to 500 nM.

In the case of `CNC(=O)c1cccc([C@@H](C)n2cnc3cc(-c4cn[nH]c4C(F)(F)F)ccc3c2=O)c1` [Compound 440, (R)—N-methyl-3-(1-(4-oxo-7-(5-(trifluoromethyl)-1H-pyrazol-4-yl)quinazolin-3(4H)-yl)ethyl)benzamide], the 50% inhibitory concentration (IC50) in assay [1] is 11 to 100 nM; in assay [2], below 10 nM. The EC50 in assay [3] was in the range of 101 to 500 nM.

As for `CNC(=O)c1cccc([C@@H](C)n2cnc3cc(-c4cn[nH]c4Cl)ccc3c2=O)c1` [Compound 466], the 50% inhibitory concentration (IC50) in assay [1] was 11 to 100 nM; in assay [2], below 10 nM. Besides, in assay [3], the EC50 was below 100 nM.

Consider `CNC(=O)c1cccc([C@@H](C)n2cnc3cc(-c4conc4C)ccc3c2=O)c1` [Compound 469], for which the IC50 in assay [1] was 11 to 100 nM; in assay [2], below 10 nM. Also, the EC50 in assay [3] is below 100 nM.

`CNC(=O)c1cccc([C@@H](C)n2cnc3cc(-c4cn[nH]c4C(F)(F)F)ncc3c2=O)c1` [Compound 568, (R)—N-methyl-3-(1-(4-oxo-7-(5-(trifluoromethyl)-1H-pyrazol-4-yl)pyrido[4,3-d]pyrimidin-3(4H)-yl)ethyl)benzamide]: the figures for the IC50 in assay [1] and in assay [2] were 11 to 100 nM and below 10 nM, respectively.

Consider `CNC(=O)c1cccc([C@@H](C)n2cnc3cc(-c4cn[nH]c4Cl)ncc3c2=O)c1` [Compound 569], for which the IC50 in assay [1] and in assay [2] was below 10 nM in each case.

Take `CNC(=O)c1cccc([C@@H](C)n2cnc3cc(-c4cn[nH]c4F)ncc3c2=O)c1` [Compound 570]: the IC50 in assay [1] and in assay [2] was below 10 nM each time.

For the compound `CNC(=O)c1cccc([C@@H](C)n2cnc3cc(-c4cn[nH]c4OC)ncc3c2=O)c1` [Compound 571], the values for the IC50 in assay [1] and in assay [2] were 11 to 100 nM and below 10 nM, respectively.

Consider `CNC(=O)c1cccc([C@@H](C)n2cnc3cc(-c4conc4C)ncc3c2=O)c1` [Compound 572], for which the values for the IC50 in assay [1] and in assay [2] were 101 to 500 nM and 10 to 100 nM, respectively.
